Test results from US9938328B2, “Use of PEDF-derived polypeptides for treating alopecia and/or hair depigmentation” (MacKay Memorial Hospital, priority 2012, dated 2018).

Columns and labels:
[1] = tested on: C57BL/6 mice; assay: Chemotherapy (CYP)-induced hair loss and depigmentation in depilated mice, topical 44-mer ointment; assay type: in vivo, mouse
Protocol: (§1) Before use, the stock containing the 44-mer was prepared into a working dilution, which is then mixed with an antibiotic ointment containing 5 mg/g neomycin sulfate and 12.5 mg/g bacitracin to obtain an antibiotic ointment containing 25 μM of 44-mer. As to other PEDF peptides, 5 μl of 5 mM PEDF peptide stock was gradually dissolved in ethyl alcohol (30% w/w in distilled water), and then 1-oleoyl-rac-glycerol (1% w/w, a skin penetration enhancer) and light mineral oil (1% w/w) were gradually added. The solution was finally gelled by adding hydroxypropyl methylcellulose (5% w/w) to a final volume of 1 ml. A DMSO vehicle corresponding to the peptide formulation was prepared for the purpose of in vivo comparison. FITC-29-mer was also dissolved in the same formulation for applied on top of skin to determining the follicular distribution of FITC-29-mer.
(§2) For topical treatments, 350 mg ointment or gel containing 25 μM of PEDF peptide was spread gently over dorsal skin per mouse.
For immunostaining, de-paraffinized tissue sections were blocked with 10% goat serum for 1 hour. Dual staining was done using primary antibodies against c-kit (1:100 dilution; red) and tyrosinase (1:100 dilution) at 37° C. for 2 hours, followed by incubation with the rhodamine-conjugated goat anti-rabbit IgG antibody (1:500 dilution) for 1 hour at room temperature a before counterstaining with hematoxylin (blue) for about 7 minutes.
The vibrissae follicle cryosections were washed three times in PBS. Formalin-fixed, paraffin-embedded skin specimens were deparaffinized in xylene and rehydrated in a graded series of ethanol. Sections were then stained with TdT-mediated dUTP nick-end labeling (TUNEL)-based kit (Roche Molecular Biochemicals, Indianapolis, Ind.) following the manufacturer's instructions. The cell number was monitored by counterstaining with Hoechst 33258 (blue). The nuclei were calculated in ten randomly selected fields of the three different chambers by a Zeiss epifluorescence microscope (400×, 10 fields/sample). Pictures were recorded on Zeiss software.
6-week-old female C57BL/6 mice that had normal black fur (i.e., those had heavily melanized terminal hair shafts) were used in this example. In four independent experiments, a total of 80 mice were used. C57BL-6 mice have been widely used in the research of alopecia and hair-depigmentation induced by chemotherapy. Only mice in the resting stage of the hair cycle (telogen) were used in these studies. Since pigment production (melanogenesis) in mice occurs exclusively in anagen follicles, telogen C57BL-6 mice could be recognized by the homogeneously pink color of their back skin. Anagen was induced in the back skin of telogen mice by depilation.
In order to obtain mice that were in exactly the same stage of anagen development, the dorsal hairs were carefully shaved with an electric clipper. Nine days after the depilation, hair grown to anagen phase as judged by skin color from pink (telogen skin) to gray (early stage of anagen VI).
On day-9 post-depilation, mice were anesthetized by an intraperitoneal injection of a mixture of zoletil (6 mg/kg) and xylazine (3 mg/kg). Mice were randomly assigned to the following experimental groups. In the CYP/vehicle group, mice received intraperitoneal injection of cyclophosphamide (CYP, an anti-cancer drug) (150 mg/kg), and 350 mg antibiotic ointment was applied to the back skin at the same time. […]

[2] = tested on: C57BL/6 mice; assay: Hydrogen peroxide (oxidative stress)-induced hair loss and depigmentation in depilated mice; assay type: in vivo, mouse; conditions: ointment with 25 μM 44-mer
Protocol: as §1, §2
In this example, the relationships between the stress caused by endogenous challenge (e.g., oxidants) and hair loss and hair graying were investigated. The mice were selected and depilated as described in Example 1 above. On day-9 post-depilation, the mice were subcutaneously injected with hydrogen peroxide at a dose of 10 ml/kg body weight. […]

VLLSPLSVATALSALSLGAEQRTESIIHRALYYDLISSPDIHGT [44-mer, 44-mer fragment (residues 78-121) of human PEDF]
hair growth activity versus CYP/vehicle (photographs, FIG. 1) ([1]; 7 and 36 days after the CYP injection): better hair growth activity
hair colour versus CYP and CYP/vehicle groups (FIG. 1) ([1]; 36 days after CYP injection): substantially darker hairs
TUNNEL Labeling Index (%) ([1]; no CYP injection, 350 mg antibiotic ointment containing 44-mer on back skin): <0.1%
TUNNEL Labeling Index (%) ([1]; with CYP 150 mg/kg i.p., 350 mg antibiotic ointment containing 25 μM 44-mer on back skin daily): 10.6 ± 1.4 %
c-kit and tyrosinase expression in the bulge (immunostaining, FIG. 3) ([1]; with CYP, barely detected in CYP/vehicle group): c-kit and tyrosinase expression were found in the bulge
hair growth activity versus H2O2/vehicle (photographs, FIG. 4) ([2]; 22 days after the H2O2 injection (10 ml/kg s.c.)): better hair growth activity
hair color versus H2O2/vehicle (FIG. 4) ([2]; 22 days after the H2O2 injection): darker
